From article PMC11313944, “Ethyl Acetate Fraction from Eleutherococcus divaricatus Root Extract as a Promising Source of Compounds with Anti-Hyaluronidase, Anti-Tyrosinase, and Antioxidant Activity but Not Anti-Melanoma Activity” (Molecules, 2024)
Marks after values point to notes of the source that are not given here.

Experiments:
[1] = test system: mushroom tyrosinase (mTYR); assay: Tyrosinase inhibition assay (L-tyrosine substrate); type: biochemical; settings: phenolic acid and eleutheroside standards (Table 6)
Method: Tyrosinase inhibitor assays were conducted in 96-well plates using a modified method originally described by Wróbel-Biedrawa. The process involves the conversion of […] to L-DOPA, then to DOPA-quinone, facilitated by the tyrosinase enzyme. This reaction results in the solution turning brown. In brief, 10 μL of the sample (concentrations of 10.0, 1.0, and 0.1 mg/mL in 10% DMSO) was combined with 150 μL of a phosphoric buffer containing mushroom tyrosinase (pH = 6.88, 100 U/mL). This mixture was then incubated for 10 min at room temperature. […] Following incubation, L-tyrosine (0.3 mg/mL) was added to each well, and the absorbance was measured at 492 nm (using a kinetic model every 5 min). Two time points (t1 and t2) were selected within the linear range of the graph. All samples were tested in triplicate. […] INHTYR=AC−AS/AC∗100%
AS—the difference in absorbance between times t2 and t1 for the sample;
AC—the difference in absorbance between times t2 and t1 for the positive control.

[2] = biological target: hyaluronidase from bovine testes (bHYAL) (Bos taurus, UniProt Q2YDK3); assay: Bovine hyaluronidase inhibition assay (CTAB turbidimetric); type: biochemical
Method: Bovine hyaluronidase inhibitor assays were conducted in 96-well plates, following a modified method originally described by Di Ferrante and Studzińska-Sroka. The activity of the compounds or extracts was determined based on the precipitation of non-hydrolyzed hyaluronic acid using cetyltrimethylammonium bromide (CTAB). A 10% water solution of DMSO was used to dissolve the extract. Then, 15 μL of extracts at concentrations of 10.0, 1.0, and 0.1 mg/mL in the well were mixed with an acetate buffer (15 μL, pH = 5.35), an incubation buffer (25 μL, pH = 5.35, 0.01% BSA, 0.45% NaCl), and an enzyme solution (25 μL, 30 U/mL in the incubation buffer). This mixture was incubated at 37 °C for 10 min. Following this, a hyaluronic acid solution (25 μL, 0.3 mg/mL in an acetate buffer with a pH of 5.35) was added. The plates were then incubated for an additional 45 min at 37 °C. After incubation, non-hydrolyzed hyaluronic acid was precipitated by adding 2.5% CTAB (200 μL). The plates were then maintained at 25 °C for 10 min. The intensity of the complex formation was measured at a wavelength of 600 nm. The presence of inhibition was determined by measuring the absorbance of the solution without the inhibitor (AC) and the enzyme (AT). All samples were tested in triplicate. The inhibition of hyaluronidase was calculated using a specific equation, with aescin used as a standard. INHHYAL=AS−AC/AT−AC∗100%
(§1) AS—absorbance of the HA + sample + enzyme;
(§2) AC—absorbance of the HA + enzyme;
(§3) AT—absorbance of the HA + sample.

[3] = ABTS free radical scavenging activity; settings: 30 min incubation
Method: The ABTS free radical scavenging test was conducted following the method outlined by Wu et al. A working solution of ABTS+ was prepared by combining 10 mL of ABTS (7 mM in H2O) with 10 mL of potassium persulfate (2.45 mM in H2O). This mixture was then left to incubate in the dark for 12 h. The ABTS solution was subsequently diluted with water until it reached an absorbance of 0.700 ± 0.03 at 405 nm. Then, volumes of 10 μL of extracts at concentrations of 1 mg/mL, 0.1 mg/mL, and 0.01 mg/mL (dissolved in MeOH) were combined with 190 μL of the ABTS+ solution and incubated for 30 min. The absorbance at 405 nm was measured after the incubation period. Butylated hydroxyanisole (BHA) was used as a control. The antioxidant activity was then calculated using a specific equation. INHABTS=AC−AS/AC∗100%
AS—the absorbance for sample + ABTS;
AC—the absorbance without sample + ABTS.

[4] = DPPH free radical scavenging activity; settings: 60 min incubation
Method: The DPPH free radical scavenging test was conducted according to the procedure established by Naseer et al.. A working solution of DPPH• was prepared by dissolving 24 mg of DPPH in 100 mL of […]. This solution was further diluted with methanol until it reached an absorbance of 0.900 ± 0.03 at 515 nm. Subsequently, volumes of 10 μL of extracts at concentrations of 1 mg/mL, 0.1 mg/mL, and 0.01 mg/mL (dissolved in MeOH) were combined with 190 μL of the DPPH• solution and allowed to incubate for 60 min. The absorbance at 515 nm was measured post incubation. Butylated hydroxyanisole (BHA) was used as a control. The antioxidant activity was then calculated using a specified equation. INHDPPH=AC−AS/AC∗100%
AS—the absorbance for sample + DPPH;
AC—the absorbance without sample + DPPH.

[5] = test system: A375 melanoma cells; assay: MTT viability assay, A375; type: cell-based, human
Method: (§4) The following human melanoma cell lines were used in this study: A375 (ATCC:CRL-1619), UACC-647 (CVCL_4049), and SK-MEL-30 (DSMZ:ACC 151). A375 cells were maintained in Dulbecco’s Modified Eagle’s Medium (DMEM). UACC-647 and SK-MEL-30 were cultured in RPMI-1640. All basal media were supplemented with fetal bovine serum (FBS) at a final concentration of 10%. The control used in the study was BJ foreskin fibroblasts (ATCC:CRL-2522). To facilitate the growth of BJ cells, Eagle’s Minimum Essential Medium (EMEM) with 10% FBS was utilized. Tissue culture-treated Petri dishes were used to support all cell lines. A temperature of 37 °C and 5% CO2 were maintained routinely. The cells were expanded for a few passages, then seeded onto 96-well plates, where they were left to attach overnight. The following day, the cells were exposed to E. divaricatus fractionated extracts at descending concentrations, starting from 200 µg/mL, or to a vehicle (DMSO, 0.1%). Alternatively, the cells were treated with doxorubicin (DOX) to independently determine the inhibitory concentrations causing the 10, 50, and 90% levels of maximal inhibition (IC10, IC50, and IC90, respectively) of cellular viability for each melanoma cell line. Then, the melanoma cells were treated with the DOX at IC10, IC50, or IC90, followed by the addition of the fractions of the extracts from E. divaricatus at a dose of 200 µg/mL. Upon 24 h of incubation, the viability of the cells was assessed by MTT assay.
(§5) Dose–response curves were obtained using GraphPad Prism 8.4.3 software running on a personal computer. Experimental datapoints were fitted to the sigmoidal equation, and the IC50 value was calculated. IC10 and IC90 values were computed using a web tool available at https://www.graphpad.com/ accessed on 20 May 2023.

[6] = test system: SK-MEL-30 melanoma cells; assay: MTT viability assay, SK-MEL-30; type: cell-based, human
Method: as §4, §5

[7] = test system: UACC-647 melanoma cells; assay: MTT viability assay, UACC-647; type: cell-based, human
Method: as §4, §5

[8] = biological target: hyaluronidase; settings: cited from earlier work
[9] = biological target: T1, human serum hyaluronidase (hHYAL) (Homo sapiens, UniProt Q12794); assay: Human serum hyaluronidase inhibition, serum of children with acute lymphoblastic leukemia; type: biochemical; settings: mean over sera of 5 patients
T1 construct: from tissue; host or cells: serum of children diagnosed with acute lymphoblastic leukemia
T1 sequence (Q12794 22-435): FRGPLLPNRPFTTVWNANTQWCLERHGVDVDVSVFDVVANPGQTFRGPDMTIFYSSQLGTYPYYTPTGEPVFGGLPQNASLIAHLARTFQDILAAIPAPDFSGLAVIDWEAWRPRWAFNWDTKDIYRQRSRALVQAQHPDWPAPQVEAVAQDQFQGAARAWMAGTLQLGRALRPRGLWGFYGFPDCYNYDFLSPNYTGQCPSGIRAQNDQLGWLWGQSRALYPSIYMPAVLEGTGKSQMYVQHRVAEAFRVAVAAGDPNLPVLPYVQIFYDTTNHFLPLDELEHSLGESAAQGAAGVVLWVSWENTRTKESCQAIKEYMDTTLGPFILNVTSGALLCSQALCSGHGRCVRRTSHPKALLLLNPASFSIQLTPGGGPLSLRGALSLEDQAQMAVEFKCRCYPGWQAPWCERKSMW
Method: Five boys diagnosed with acute lymphoblastic leukemia (ALL) before starting treatment were included in the study. These patients were diagnosed at the Department of Pediatric Hematology and Oncology at Jurasz University Hospital in Bydgoszcz, Poland, between 2019 and 2020. Venous blood samples were collected from each child while fasting and placed into serum tubes supplied by Becton Dickinson, located in Franklin Lakes, NJ, USA. The blood samples were left to clot at room temperature for 30 min, then centrifuged for 20 min at 2000× g, also at room temperature. The samples were then collected and stored at a temperature of −80 °C until the time of analysis. The study was approved by the local Bioethics Committee (approval number 608/2019) and was conducted in accordance with the Declaration of Helsinki.
The inhibition of human serum hyaluronidase was assessed using modified methods. The activity of the compounds or extracts was determined by precipitating non-hydrolyzed hyaluronic acid with cetyltrimethylammonium bromide (CTAB). […] The intensity of the complex formation was measured at a wavelength of 600 nm. […] The inhibition of hyaluronidase was calculated using a specific equation, with aescin used as a standard. […]
as §1, §2, §3

[10] = test system: human hyaluronidase (hHYAL); settings: cited from earlier work
[11] = phenolic acid and eleutheroside standards (Table 6)
[12] = Homo sapiens, A-375, A375, 24 h

Sequence of hyaluronidase from bovine testes (bHYAL) (Q2YDK3 entry or part of it): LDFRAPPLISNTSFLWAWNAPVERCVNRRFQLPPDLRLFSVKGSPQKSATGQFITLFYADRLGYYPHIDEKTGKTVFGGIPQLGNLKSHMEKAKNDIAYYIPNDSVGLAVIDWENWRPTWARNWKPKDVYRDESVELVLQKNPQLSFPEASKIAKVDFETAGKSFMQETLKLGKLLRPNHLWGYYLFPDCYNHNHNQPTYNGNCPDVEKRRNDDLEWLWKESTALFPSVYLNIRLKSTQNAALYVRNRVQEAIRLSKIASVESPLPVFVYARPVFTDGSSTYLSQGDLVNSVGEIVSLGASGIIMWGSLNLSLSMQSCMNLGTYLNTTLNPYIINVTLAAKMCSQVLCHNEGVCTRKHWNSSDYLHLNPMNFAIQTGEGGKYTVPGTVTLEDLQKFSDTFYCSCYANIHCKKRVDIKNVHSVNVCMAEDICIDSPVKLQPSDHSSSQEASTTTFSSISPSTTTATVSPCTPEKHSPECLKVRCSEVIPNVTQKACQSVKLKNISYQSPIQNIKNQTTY

COc1cc(C2OCC3C(c4cc(OC)c(O[C@@H]5O[C@H](CO)[C@@H](O)[C@H](O)[C@H]5O)c(OC)c4)OCC23)cc(OC)c1O[C@@H]1O[C@H](CO)[C@@H](O)[C@H](O)[C@H]1O (single isomer, unassigned; (-)) [Eleutheroside E, (−)-siringaresinol 4,4″-O-β-D-diglucoside]
IC50 mTYR [1]: no activity | IC50 bHYAL [2, 11]: no activity

O=C1O[C@H]([C@@H](O)CO)C(O)=C1O [AA, ascorbic acid]
IC50 ABTS [3]: 2.27 ± 0.07 ^a µg/mL | IC50 DPPH [4]: 24.93 ± 0.28 ^ab µg/mL

COc1ccc(O)c(C(C)(C)C)c1 [BHA, Butylated hydroxyanisole]
IC50 ABTS [3]: 2.35 ± 0.11 ^a µg/mL | IC50 DPPH [4]: 62.52 ± 4.13 ^ab µg/mL

O=C(O)/C=C/c1ccc(O)c(O)c1 [Caffeic acid]
IC50 mTYR [1]: 56.22 ± 0.67 ^a µg/mL

O=C(/C=C/c1ccc(O)c(O)c1)O[C@@H]1C[C@](O)(C(=O)O)C[C@@H](O)[C@H]1O [Chlorogenic acid]
IC50 mTYR [1]: 107.52 ± 3.46 ^ab µg/mL

COc1cccc2c1C(=O)c1c(O)c3c(c(O)c1C2=O)C[C@@](O)(C(=O)CO)C[C@@H]3O[C@H]1C[C@H](N)[C@H](O)[C@H](C)O1 [DOX, doxorubicin]
maximal level of inhibition of viability ([5]; A375): 96.38% | IC10 ([5]; A375, 24 h): 90 nM | inhibition of viability ([5]; A375, DOX alone at IC90): 96% | IC50 [5, 12]: 330 nM | IC90 [5, 12]: 1190 nM | IC50 ([6]; Homo sapiens, SK-MEL-30, 24 h, read-out: IC50 (50% of maximal inhibition of viability)): 1520 nM | IC90 ([6]; Homo sapiens, SK-MEL-30, 24 h, read-out: IC90 (90% of maximal inhibition of viability)): 9630 nM | maximal drop of viability ([6]; SK-MEL-30): 81.87% | IC10 (10% of maximal inhibition of viability) ([6]; SK-MEL-30, 24 h): 240 nM | IC50 ([7]; Homo sapiens, UACC-647, 24 h): 1160 nM | IC90 ([7]; Homo sapiens, UACC-647, 24 h): 3760 nM | maximal suppression of viability ([7]; UACC-647): 39.15% | IC10 ([7]; UACC-647, 24 h): 360 nM

COc1cc(/C=C/CO)cc(OC)c1O[C@@H]1O[C@H](CO)[C@@H](O)[C@H](O)[C@H]1O [Eleutheroside B, syringin 4-β-D-glucoside]
IC50 mTYR [1]: no activity | IC50 bHYAL [2, 11]: no activity

O=C(O)c1ccc(O)c(O)c1 [Protocatechuic acid]
IC50 mTYR [1]: 134.57 ± 3.46 ^b µg/mL

Cc1c(C)c2c(c(C)c1O)CCC(C)(C(=O)O)O2 (stereo not drawn) [TROLOX, 6-hydroxy-2,5,7,8-tetramethylchroman-2-carboxylic acid]
IC50 ABTS [3]: 2.85 ± 0.18 ^ab µg/mL | IC50 DPPH [4]: 13.68 ± 3.53 ^a µg/mL

O=C(/C=C/c1ccc(O)c(O)c1)O[C@H](Cc1ccc(O)c(O)c1)C(=O)O [rosmarinic acid]
IC50 [8]: 545000 nM

Eleutheroside E1
IC50 mTYR [1]: no activity | IC50 bHYAL [2, 11]: no activity

aescin
hHYAL inhibition, mean group value [9]: 63.8% | IC50 bHYAL ([2]; fractions of the 75% methanol extract and control (Table 5)): 388.8 ± 1.81 ^b µg/mL | inhibition of human hyaluronidase activity, range [10]: 20.00–47.37% | inhibition of hyaluronidase activity, mean group value [10]: 40%
